# Measurements: patent publication US5227485A, “Pyrazolo[3,4-d]pyrimidines with adenosine-like binding affinities” (Griffith University, priority 1990, dated 1993)
# What was measured:
# [1] = target: benzodiazepine receptors; conditions: cited from earlier work
# [2] = tested on: mice; conditions: oral or intraperitoneal; cited from earlier work
# [3] = in vivo; rats (printed "rates"); cited from earlier work
# [4] = tested on: mouse spinal cord; conditions: at doses in which neuromuscular junction transmission was unaltered; cited from earlier work
# [5] = tested on: adenosine deaminase; conditions: cited from earlier work
# [6] = tested on: adenosine uptake system (nucleoside transporter); conditions: cited from earlier work
# [7] = tested on: A1 site; conditions: cited from earlier work
# [8] = tested on: A2 site; conditions: cited from earlier work
# [9] = tested on: cerebellar cyclic GMP; conditions: in vivo; cited from earlier work
# [10] = target: T1, A1 receptor (Rattus norvegicus, UniProt P25099); assay: IC50 at the A1 receptor (^3 H-PIA); format: binding; conditions: for IC50: ^3 H-PIA
# T1 sequence (P25099 1-326): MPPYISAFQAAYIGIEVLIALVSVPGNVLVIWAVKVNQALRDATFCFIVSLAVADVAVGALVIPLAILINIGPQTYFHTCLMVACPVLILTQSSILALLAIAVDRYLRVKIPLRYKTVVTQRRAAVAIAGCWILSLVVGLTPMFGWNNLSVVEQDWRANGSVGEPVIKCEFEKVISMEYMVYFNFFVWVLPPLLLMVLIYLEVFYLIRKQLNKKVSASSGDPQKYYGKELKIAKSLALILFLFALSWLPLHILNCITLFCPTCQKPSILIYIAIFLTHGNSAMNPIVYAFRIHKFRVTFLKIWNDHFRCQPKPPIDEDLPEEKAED
# [11] = target: A2 receptor (Rattus norvegicus, UniProt P30543); assay: IC50 at the A2 receptor (^3 H-CGS21680); format: binding
# [12] = tested on: A2 surface receptors; conditions: cited from earlier work; for agonism at the A2 site: in words
# [13] = tested on: A1 surface receptors; conditions: both sites, in words; cited from earlier work
# [14] = tested on: rats; conditions: NECA vs R-PIA; cited from earlier work
# [15] = tested on: noradrenaline-contracted guinea pig aorta; conditions: by interactions with A2 receptors; cited from earlier work
# [16] = tested on: coronary vascular smooth muscle; conditions: cited from earlier work
# [17] = tested on: animals; conditions: cited from earlier work
# [18] = in vivo; cited from earlier work
# [19] = because of antagonism of the effects of extracellular adenosine; cited from earlier work
# A2 receptor, sequence (P30543 whole entry): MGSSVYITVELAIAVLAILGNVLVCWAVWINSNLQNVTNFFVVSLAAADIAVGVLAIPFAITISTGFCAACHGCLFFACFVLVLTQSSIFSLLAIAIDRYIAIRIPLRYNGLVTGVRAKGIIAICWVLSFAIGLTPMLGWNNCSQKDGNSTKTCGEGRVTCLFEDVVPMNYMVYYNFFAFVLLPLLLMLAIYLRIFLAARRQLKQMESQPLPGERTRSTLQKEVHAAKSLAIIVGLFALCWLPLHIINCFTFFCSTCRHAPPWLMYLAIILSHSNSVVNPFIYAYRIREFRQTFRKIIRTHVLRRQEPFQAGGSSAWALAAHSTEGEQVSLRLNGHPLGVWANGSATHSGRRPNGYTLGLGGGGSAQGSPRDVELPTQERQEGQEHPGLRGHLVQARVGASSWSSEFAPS
smiles,measurement,setting,value
Cn1c(N)c2ncn([C@@H]3O[C@H](CO)[C@@H](O)[C@H]3O)c2nc1=O [1-methylisoguanosine],Ki,"[1]; benzodiazepine receptors, read-out: Ki vs ^3 H-diazepam binding",~17000 nM
same,potency at benzodiazepine receptors relative to inosine and hypoxanthine,[1]; comparison in words,several hundred fold more potent than inosine and hypoxanthine
same,muscle relaxation and hypothermia,[2],potent muscle relaxation and hypothermine
same,effect on blood pressure and heart rate,[3],reduced blood pressure and heart rate
same,polysynaptic responses in the mouse spinal cord,[4],blocked polysynaptic responses
same,degradation by adenosine deaminase,[5],resistant to degradation by adenosine deaminase
same,"substrate for, or inhibitor of, the adenosine uptake system",[6],"poor substrate for, or inhibitor of, the adenosine uptake system"
same,"interaction with extracellular adenosine receptors, A1 site",[7],can interact with extracellular adenosine receptors
same,"interaction with extracellular adenosine receptors, A2 site",[8],can interact with extracellular adenosine receptors
same,cerebellar levels of cyclic GMP,[9],decreases cerebellar levels of cyclic GMP
"CCCCSc1cc(Nc2ccccc2)nc(SC(C)C(N)=O)n1 (centres unmarked) [Compound 1, (2-n-butylthio)-4-(N-phenyl)-6-propionamidyl thiopyrimidine]",affinity for the A1 receptor,[10]; in words,moderate affinity
"CCC(Sc1nc(SC(CC)C(N)=O)c2cnn(-c3ccccc3)c2n1)C(N)=O (stereo not drawn) [Compound 4, 4,6-bis-α-carbamoylpropylthio-1-phenylpyrazolo[3,4-d]pyrimidine]",IC50,[10],108 nM
same,potency of butanamide side chain versus propionamide moiety in FIG. 3,[10]; comparison in words,increased potency over the proprionamide moiety
"CCC(Sc1nc2c(cnn2-c2ccccc2)c(=S)[nH]1)C(N)=O (stereo not drawn) [Compound 5, 6-α-carbamoylpropylthio-4-mercapto-1-phenylpyrazolo[3,4-d]pyrimidine]",IC50,[10],492 nM
"CCNC(=O)C(C)Sc1nc(SC(C)C(=O)NCC)c2cnn(-c3ccccc3)c2n1 (stereo not drawn) [Compound 6, 4,6-Bis-α-N-ethylcarbamoylethylthio-1-phenylpyrazolo[3,4-d]pyrimidine]",IC50,[10],580 nM
same,IC50,[11],570 nM
"CCNC(=O)C(C)Sc1nc(S)c2cnn(-c3ccccc3)c2n1 (stereo not drawn) [Compound 7, 6-α-N-Ethylcarbamoylethylthio-4-mercapto-1-phenylpyrazolo[3,4-d]pyrimidine]",IC50,[10],490 nM
same,IC50,[11],540 nM
CCNC(=O)C(C)Sc1nc(N)c2cnn(-c3ccccc3)c2n1 (centres unmarked) [Compound 8],IC50,[10],17 nM
"CCNC(=O)[C@H]1O[C@@H](n2cnc3c(N)ncnc32)[C@H](O)[C@@H]1O [NECA, 5'-N-ethyl carboxamidoadenosine]",agonist potency at A2 surface receptors,"[12]; adenylate cyclase systems, NECA vs R-PIA",more potent agonist at A2 surface receptors than is R-N^6 -phenylisopropyl adenosine (R-PIA)
same,agonism at the A2 site,[12],non-selective and are good agonists at both sites
same,agonism at the A1 site,[13],non-selective and are good agonists at both sites
same,anticonvulsant activity in reductions of amygdaloid-kindled seizures,[14],slightly more anticonvulsant activity than R-PIA
C[C@H](Cc1ccccc1)Nc1ncnc2c1ncn2[C@@H]1O[C@H](CO)[C@@H](O)[C@H]1O [PIA],agonism at the A2 site,[12],reduced agonistic activity
Nc1ncnc2c1ncn2[C@@H]1O[C@H](CO)[C@@H](O)[C@H]1O [adenosine],agonism at the A2 site,[12],non-selective and are good agonists at both sites
same,agonism at the A1 site,[13],non-selective and are good agonists at both sites
same,relaxation of noradrenaline-contracted guinea pig aorta,[15],relaxed
same,relaxation of coronary vascular smooth muscle,[16],causes relaxation
same,effects when given to animals,"[17]; intraperitoneal, alone",minimal or no effects
same,effects in the presence of an adenosine uptake inhibitor and/or adenosine deaminase inhibitor,[17]; with adenosine uptake inhibitor and/or adenosine deaminase inhibitor,can cause muscle relaxation and hypothermia
same,activity of adenosine in words,[18],"profound hypotensive, antispasmodic, sedative and vasodilatory activity"
Cn1c(=O)c2c(ncn2C)n(C)c1=O [caffeine],central stimulant action,[19],central stimulant action
CN1C(=O)CN=C(c2ccccc2)c2cc(Cl)ccc21 [diazepam],Kd,"[1]; radioligand, read-out: Kd of ^3 H-diazepam binding",11 nM
same,cerebellar levels of cyclic GMP,[9],decreases cerebellar levels of cyclic GMP
Cn1c(=O)c2[nH]cnc2n(C)c1=O [theophylline],central stimulant action,[19],central stimulant action
